Measurements from patent US20260283917A1, “ANTI-WRINKLE AGENT” (SHISEIDO COMPANY, LTD., priority 2023, published 2026).

Experiments:
MMP-1 = MMP-1 gene expression analysis by real-time PCR in dermal fibroblasts; assay type: cell-based; conditions: Homo sapiens, NB1RGB, 48 h, read-out: MMP-1 gene expression level
Experimental: (§1) As the control, a medium not comprising these components was used.
(§2) RNA concentrations were calculated using OD260 and diluted with TE Buffer to adjust the RNA concentrations to 10 μg/mL.
(§3) Reverse transcription of RNA was carried out using SuperScript™ IV VILO™ Master Mix with ezDNase (Cat No. 11766050, Invitrogen, USA). 4 μL of SuperScript™ IV VILO™ Master Mix and 6 μL of Nuclease-free Water were added per well in an 8-tube strip and heated at 25° C. for 10 min, 50° C. for 10 min, and 85° C. for 5 min using real-time PCR (QuantStudio (registered trademark) 3, Applied Biosystems, USA) to synthesize cDNA. 10 μL of TaqMan (registered trademark) Fast Advanced Master Mix (Cat No. 4444557, Applied Biosystems, USA), 1 μL of TaqMan Gene Expression, 7 μL of UltraPure™ Distilled Water (Invitrogen, Cat No. 10977-015, USA), and 2 μL of cDNA were added per well in a PCR plate and sealed. A primer (Hs00899658_ml) for MMP-1 and a primer (Hs00153510_ml) for NEP; and a primer (Hs02786624_g1) for GAPDH as an internal standard gene; were used to carry out real-time qPCR, the threshold cycle (Ct) value of each of the MMP-1 gene and the NEP gene in the medium supplemented with each component was calculated, and then Ct value was corrected with GAPDH to obtain a ΔCt value. Assuming that gene level doubles per cycle, when gene expression level of the control was set at 1, the gene expression level in the medium supplemented with each component was determined. In the analysis of gene expression level, the average value of 24-well plate×3 wells was used for each treatment group.

NEP = NEP gene expression analysis by real-time PCR in dermal fibroblasts; assay type: cell-based; conditions: Homo sapiens, NB1RGB, 48 h, read-out: NEP gene expression level
Experimental: as §1, §2, §3

[1] = test system: human neonatal dermal fibroblast cell line NB1RGB
Experimental: After 24 h, the medium was removed and replaced with a medium to which citronellol (CAS number: 106-22-9, Wako Pure Chemical Industries, Ltd.) was added so as to have the final concentration shown in Table 3 below, and the cells were further cultured within the CO2 incubator for 48 h. As the control, a medium not comprising citronellol was used.
According to the following method, the effect of citronellol on proliferation of dermal fibroblasts was evaluated.
A 96-well plate from which the medium was removed was washed with 100 μL of PBS(−). 100 μL of 0.5 mg/mL 3-(4,5-dimethylthiazol-2-yl)-2,5-diphenyltetrazolium bromide (MTT, CAS No. 298-93-1, Sigma-Aldrich, USA) solution was then added and incubated within a CO2 incubator for 2 h. After removing the MTT solution and washing with 100 μL of PBS(−), 200 μL of 2-propanol (CAS No. 67-63-0, Wako, Japan) was added to dissolve the insoluble formazan. A dye was uniformly dispersed within the 96-well plate, and then absorbance (OD570) at 570 nm was measured using a microplate reader (SPARK (registered trademark), 10M TECAN, Switzerland). Setting OD570 of the control group at 100%, OD570 of the citronellol-added group, i.e., the effect on cell proliferation, was calculated as the cell-activating effect (%) of citronellol. In the analysis of cell-activating effect, the average value of 96-well plate 9×3 wells was used for each treatment group.

Type I collagen = assay: Collagen production rate in culture supernatant by sandwich ELISA; assay type: cell-based; conditions: Homo sapiens, NB1RGB fibroblasts, 48 h, OD405/OD570, no-addition group = 100, read-out: Collagen production rate (%) per cell
Experimental: A supernatant of the culture cultured in 2-1 was dispensed into a new 96-well plate and frozen for storage (−80° C.). The collagen production rate in the culture supernatant was measured by sandwich ELISA, and the effect of citronellol on the collagen level was evaluated.
100 μL of culture supernatant diluted 4-fold with PBS(−) was added to a high-binding 96-well plate, and incubated overnight at 4° C. Type I collagen solution (Cat No. 009-001-103, RCK, USA) was used as a standard substance. […] The dye was uniformized within the 96-well plate, and then absorbance (OD405) at 405 nm was measured using a microplate reader.
Setting OD405 of the control group at 100%, the collagen production rate of citronellol was calculated. In addition, the OD405 of the control and citronellol were each divided by OD570 measured in 2-2 to calculate the collagen production rate per cell. Setting the collagen production rate per cell in the control group at 100%, the collagen production rate of citronellol per cell was calculated.

Compound | fold induction at 50 µM (MMP-1) | fold induction at 50 µM (NEP) | cell-activating effect / toxicity (proliferation of fibroblasts, MTT) [1] | activity at 50 µM (Type I collagen) [%]
CCCCCOC(=O)CCC [Amyl butyrate] | 0.24 | 0.43 |  | 
CC(C)=CCCC(C)CCO (stereo not shown) [Citronellol] | 0.25 | 0.85 | no cell-activating effect or toxicity | 102
CC(C)=CCCC(C)=CCCC(C)=CCO [Farnesol] | 0.22 | 0.44 |  | 
c1ccc2[nH]ccc2c1 [Indole] | 0.36 | 0.4 |  | 
